The text below walks through data of patent EP2756852A1, “Heparin-lipidic nanoparticle conjugates” (Centre de Recerca en Salut Internacional de Barcelona, priority 2013, dated 2014).

Molecules are shown by their SMILES. “Also recorded” adds a separate entry of the source.

Series [1] has as its system healthy cells. The series is described as follows: Unspecific cytotoxicity assay (WST-1). In kind it is cell-based. As to conditions: DOTAP concentration up to 200 µM; 24 or 48 h at 37°C; WST-1, absorbance at 440 nm. How it is done:
Cells were seeded in 96-well plates at a density of 5000 cells/100 µl/well, and incubated for 24 hours at 37°C in Medium 199 with Earle's Salts, supplemented with L-glutamine and FBS (PAA Laboratories GmbH). After that time the medium was carefully removed with a pipette and 90 µL of new medium (without FBS in this case) were added, followed by 10 µL of the sample to be analysed, which consisted of a solution of DOTAP 200 µM in PBS. It is advisable to prepare the sample dilutions in a 9:1 proportion (9 µl media:1 µl sample). After incubating for either 24 or 48 h at 37°C, 10 µL of WST-1 reagent were added, and after incubating for 1 h at 37°C absorbance at 440 nm was measured.
(In general: Tetrazolium assays rely on reduction of a dye to a coloured formazan, in cell work by metabolically active cells.)

In series [2] the test system is P. falciparum 3D7 strain. Description: Plasmodium falciparum growth inhibition assay (parasitemia by blood smear counting or FACS). It counts as cell-based. The note with it: expressed with respect to non-treated pRBC, 48 h, liposomes 50 µM total lipid, primaquine 3 µM final in culture. How it is done:
For culture maintenance, parasitemias were kept below 5% late forms by dilution with washed RBCs.
150 µL of this Plasmodium culture was plated in 96-well plates and incubated in the presence of liposomes for 48 h in the conditions described above.
Parasitemia was determined by microscopic counting of blood smears, or by fluorescence-assisted cell sorting (FACS). Smears were fixed in methanol for a few seconds and then stained for ten minutes with Giemsa (Merck Chemicals, Germany) diluted 1:10 in Sorenson's Buffer, pH 7.2. […] Samples were analyzed using an Epics XL flow cytometer (Coulter Corporation, Miami, Florida), set up with the standard configuration. Excitation of the sample was done using a standard 488 nm air-cooled argon-ion laser at 15 mW power. Forward scatter and side scatter were used to gate the RBC population. […] The single-cell population was selected on a forward-side scatter scattergram, and the fluorescence from this population was analyzed. Parasitemia was expressed as the number of parasitized cells per 100 erythrocytes.
Parasitemia was determined by microscopic counting of blood smears, or by fluorescence-assisted cell sorting (FACS).

With `CCCCCCCC/C=C\CCCCCCCC(=O)OCC(C[N+](C)(C)C)OC(=O)CCCCCCC/C=C\CCCCCCCC` (stereo not shown) [DOTAP, 1,2-dioleoyl-3-trimethylammonium-propane], the cytotoxicity result in series [1] is listed as “not toxic; also recorded: not observed”.

Turning to `COc1cc(NC(C)CCCN)c2ncccc2c1` (stereo not shown) [PQ, primaquine], the parasitemia in series [2] (Example 1, FIG. 2) came to 24.8%; in series [2] (Example 2, FIG. 3), 45.8%; in series [2] (Example 3, FIG. 4) it was 46.4%.
